Test results as given in US20200054651A1, “COMPOSITIONS AND METHODS FOR MODULATING PPP2R1A” (The Regents of the University of California, priority 2017, published 2020).

Legend:
[1] = tested on: 231MFP breast cancer cells; experiment: 231MFP cell proliferation (Hoechst staining); type: cell-based; conditions: 48 h; for cell proliferation: 231MFP
C377 of PPP2R1A = target: T1, C377 of PPP2R1A (Homo sapiens, UniProt P30153); experiment: isoTOP-ABPP after in situ treatment of 231MFP cells; type: binding; conditions: 4 h in 231MFP cells in situ, IAyne labeling ex situ
T1 construct: pre-incubating withaferin A (10 μM) for 30 min in 231MFP breast cancer cell proteomes; endogenous in cells; host or cells: 231MFP breast cancer cells (MDA-MB-231 derived)
Protocol: IsoTOP-ABPP studies were performed using the methods described in “Nature 534(7608), 570-574 (2016)” by Backus K. M., et al. and “Nature 468(7325), 790-795 (2010)” by Weerapana E., et al. […] Then, IAyne (iodoacetamide-alkyne) labeling was performed for 1 hour at room temperature. CuAAC was used by sequential addition of tris(2-carboxyethyl)phosphine (1 mM), tris[(1-benzyl-1H-1,2,3-triazol-4-yl)methyl]amine (34 μM), copper (II) sulfate (1 mM), and biotin-linker-azide where the linker was functionalized with a TEV protease recognition sequence along with an isotopically light or heavy valine for treatment of control or treated proteome, respectively. After click reactions, proteomes were precipitated by centrifugation at 6500×g, washed in ice-cold methanol, combined in a 1:1 control/treated ratio, washed again, then denatured and re-solubilized by heating in 1.2% SDS/PBS to 80° C. for 5 minutes. Insoluble components were precipitated by centrifugation at 6500×g and soluble proteome was diluted in 0.2% SDS/PBS (5 ml). Labeled proteins were bound to avidin-agarose beads (170 μl re-suspended beads/sample) while rotating overnight at 4° C. Bead-linked proteins were enriched by washing three times each in PBS and water, then re-suspended in urea/PBS (6 M), reduced in TCEP (1 mM), alkylated with iodoacetamide (18 mM), then washed and re-suspended in urea/PBS (2 M), and finally trypsinized overnight with 0.5 μg/μl sequencing grade trypsin. Tryptic peptides were eluted off. Beads were washed in PBS (3 times) and water (3 times), washed in TEV buffer solution (water, TEV buffer, 100 μM dithiothreitol), and re-suspended in buffer with Ac-TEV protease and then incubated overnight. Peptides were diluted in water, acidified with formic acid (1.2 M), and prepared for analysis.
Peptides from all proteomic experiments were pressure-loaded onto an Agilent 600 series RP-HPLC system equipped with a capillary tubing (250 mm) packed with Aqua C18 reverse-phase resin (4 cm). The system was previously equilibrated with a gradient (0% B to 100% B over 10 minutes, 100% B for 5 minutes, then 0% B for 5 minutes; buffer A: 95:5 water:acetonitrile, 0.1% formic acid; buffer B: 80:20 acetonitrile:water, 0.1% formic acid). The samples were then attached using a MicroTee PEEK 360 μm fitting to a laser pulled column (13 cm) packed with Aqua C18 reverse-phase resin (10 cm) and strong-cation exchange resin (3 cm) for isoTOP-ABPP studies. Samples were analyzed using an Q Exactive Plus mass spectrometer using a 5-step Multidimensional Protein Identification Technology (MudPIT) program. The system was run using a gradient (5% B to 55% B; buffer A: 95:5 water:acetonitrile, 0.1% formic acid; buffer B: 80:20 acetonitrile:water, 0.1% formic acid), along with a salt bump feeding aqueous ammonium acetate (500 mM) at an increment of 0%, 25%, 50%, 80%, to 100%. Data was collected in data-dependent acquisition mode with dynamic exclusion enabled (60 sec). One full MS scan (400-1800 m/z) (MS1 scan) was conducted, followed by MS2 scan (ITMS) (15 times) of the most abundant ions. Heated capillary temperature was set to 200° C. and the nanospray voltage was set to 2.75 kV.
Data was extracted in the form of MS1 and MS2 files using Raw Extractor 1.9.9.2 and searched against the Uniprot […] database using ProLuCID search methodology in IP2 v.3, described in “J Proteomics 129:16-24 (2015)” by Xu T, et al. Cysteine residues were searched with a static modification for carboxyaminomethylation (+m/z 57.02146), up to two differential modifications for methionine oxidation, and either the light or heavy TEV tags (+m/z 464.28596 or +m/z 470.29977, respectively). Peptides were required to have at least one tryptic end and to contain the TEV modification. ProLUCID data was filtered through DTASelect to achieve a peptide false-positive rate below 1%. […]

[2] = tested on: phosphorylated AKT (p-AKT); experiment: Western blot of phosphorylated AKT in 231MFP cells; type: cell-based
Protocol: Antibodies to vinculin, phospho-Akt (Ser473), and Akt were obtained from a commercial source and proteomes were blotted per recommended manufacturer's' procedure. Cells were lysed in lysis buffer (containing the following: 20 mM Tris pH 7.5, 150 mM NaCl, 1 mM EDTA, 1 mM EGTA, 1% Triton X-100, 2.5 mM pyrophosphate, 50 mM NaF, 5 mM (3-glycero-phosphate, 1 mM Na3VO4, 50 nM calyculin A, and protease inhibitors). Lysate was incubated on a rotator at 4° C. for 30 min, and insoluble material was removed via centrifugation at a max speed for 10 minutes. Proteins were resolved by SDS/PAGE and transferred to nitrocellulose membranes using the iBlot system. Blots were blocked with 5% nonfat milk in Tris-buffered saline containing Tween 20 (TBST) solution for 1 hour at room temperature, washed in TBST, and probed with primary antibody diluted in a manufacturer recommended diluent overnight at 4° C. Following washes with TBST, the blots were incubated in the dark with secondary antibodies purchased from Rockland and used at 1:10 000 dilution in 5% nonfat milk in TBST at room temperature. Blots were visualized using an Odyssey Li-Cor scanner after additional washes.

siPPP2R1A 231MFP cells = experiment: Proliferation of siPPP2R1A knockdown 231MFP cells; type: cell-based; conditions: 48 h after 48 h siRNA transfection
Excerpt: PPP2R1A was transiently knocked down with siRNA using previously described methods (Benjamin et al., 2014). siRNA for a scrambled RNA oligonucleotide control and pooled RNA oligonucleotides targeting PPP2R1A were purchased from Dharmacon.

T1 sequence (P30153 whole entry): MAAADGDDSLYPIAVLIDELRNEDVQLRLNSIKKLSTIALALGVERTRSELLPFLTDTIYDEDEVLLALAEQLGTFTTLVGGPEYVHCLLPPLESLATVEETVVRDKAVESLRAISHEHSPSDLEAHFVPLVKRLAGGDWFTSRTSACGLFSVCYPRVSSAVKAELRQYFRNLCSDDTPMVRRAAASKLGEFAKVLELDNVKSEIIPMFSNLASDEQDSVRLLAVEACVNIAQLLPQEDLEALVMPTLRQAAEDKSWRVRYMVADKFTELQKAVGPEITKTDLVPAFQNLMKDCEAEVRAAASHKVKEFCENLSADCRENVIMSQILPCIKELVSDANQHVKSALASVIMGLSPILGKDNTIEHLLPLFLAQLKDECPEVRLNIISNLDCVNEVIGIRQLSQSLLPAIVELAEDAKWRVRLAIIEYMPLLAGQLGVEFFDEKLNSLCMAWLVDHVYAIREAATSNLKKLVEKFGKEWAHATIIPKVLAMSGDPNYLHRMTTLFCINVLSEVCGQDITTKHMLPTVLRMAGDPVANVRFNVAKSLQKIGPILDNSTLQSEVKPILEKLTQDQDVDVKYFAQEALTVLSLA

For `O=C(CCl)Nc1ccc2c(c1)OCCO2` [DKM 2-90, 2-Chloro-N-(2,3-dihydrobenzo[β][1,4]dioxin-6-yl)acetamide], the cell proliferation ([1]; 100 μM) was “lead compounds”, the “isotopically light to heavy ratio, C377 of PPP2R1A” value (“isotopically light to heavy ratio” below) (C377 of PPP2R1A; 100 μM) was 5.9 and the “phosphorylated AKT levels” value ([2]; 100 μM, 5 h) was “inhibit AKT signaling”. For the same compound, the “anti-proliferative effect in siPPP2R1A versus siControl cells” value (siPPP2R1A 231MFP cells; 100 μM) was “attenuation”.
For `O=C(CCl)N(Cc1ccccc1)c1ccc2c(c1)OCCO2` [JNS 1-40, N-benzyl-2-chloro-N-(2,3-dihydrobenzo[b][1,4]dioxin-6-yl)acetamide], the cell proliferation ([1]; 100 μM) was “impaired”, the “isotopically light to heavy ratio” value (C377 of PPP2R1A; 100 μM) was greater than 5 and the “phosphorylated AKT levels” value ([2]; 100 μM, 5 h) was “significantly reduced phosphorylated AKT levels”. The “anti-proliferative effect in siPPP2R1A versus siControl cells” value (siPPP2R1A 231MFP cells; 100 μM) was “attenuated”.
With `CC1=C(CO)C(=O)O[C@@H]([C@@H](C)[C@H]2CC[C@H]3[C@@H]4C[C@H]5O[C@]56[C@@H](O)C=CC(=O)[C@]6(C)[C@H]4CC[C@]23C)C1` [withaferin A, reference compound] the cell proliferation ([1]; 10 μM) was “impairs”, the EC50 ([1]; serum-containing media, Hoechst staining, read-out: 50% effective concentration (EC50), impairment of 231MFP cell proliferation) was 7.5 µM and the “isotopically light to heavy ratio” value (C377 of PPP2R1A; 10 μM) was 4.0. The “phosphorylated AKT levels” value ([2]; 10 μM, 4 h) was “reduced phosphorylated AKT levels”, the “phosphorylated AKT levels with cantharidin co-treatment” value ([2]; 10 μM, 4 h, co-treatment with cantharidin (10 μM, 4 h)) was “rescued” and the “anti-proliferative effect in siPPP2R1A versus siControl cells” value (siPPP2R1A 231MFP cells; 10 μM) was “significantly attenuated the anti-proliferative effects”.
